Measured values reported in paper PMC9410468 (Marine Drugs, 2022).

Legend:
rα3β4 nAChR = rα3β4 nAChR (Rattus norvegicus, UniProt P04757+P12392); type: cell-based
rα6/α3β4 nAChR = type: cell-based, rat
RAW264.7 cells [1] = type: cell-based, mouse
RAW264.7 cells [2] = type: cell-based, mouse; remark: listed apart in the source
α3β4 nAChR = conditions: cited from earlier work
[3] = in vivo; cited from earlier work

rα3β4 nAChR, sequence (P04757 26-499 limits assumed): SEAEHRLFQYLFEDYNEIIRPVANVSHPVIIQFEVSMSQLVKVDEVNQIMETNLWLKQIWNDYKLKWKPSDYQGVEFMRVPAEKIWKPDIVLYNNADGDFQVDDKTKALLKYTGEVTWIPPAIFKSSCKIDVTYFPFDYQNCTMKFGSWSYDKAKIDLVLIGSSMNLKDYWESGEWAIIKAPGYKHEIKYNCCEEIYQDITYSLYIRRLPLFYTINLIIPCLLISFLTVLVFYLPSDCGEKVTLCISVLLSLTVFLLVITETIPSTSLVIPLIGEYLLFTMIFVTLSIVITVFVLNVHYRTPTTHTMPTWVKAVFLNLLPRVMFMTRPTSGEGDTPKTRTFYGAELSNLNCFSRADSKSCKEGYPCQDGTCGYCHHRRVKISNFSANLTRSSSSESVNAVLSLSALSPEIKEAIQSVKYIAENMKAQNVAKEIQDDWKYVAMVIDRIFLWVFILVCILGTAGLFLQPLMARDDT
rα3β4 nAChR, sequence (P12392 21-495 limits assumed): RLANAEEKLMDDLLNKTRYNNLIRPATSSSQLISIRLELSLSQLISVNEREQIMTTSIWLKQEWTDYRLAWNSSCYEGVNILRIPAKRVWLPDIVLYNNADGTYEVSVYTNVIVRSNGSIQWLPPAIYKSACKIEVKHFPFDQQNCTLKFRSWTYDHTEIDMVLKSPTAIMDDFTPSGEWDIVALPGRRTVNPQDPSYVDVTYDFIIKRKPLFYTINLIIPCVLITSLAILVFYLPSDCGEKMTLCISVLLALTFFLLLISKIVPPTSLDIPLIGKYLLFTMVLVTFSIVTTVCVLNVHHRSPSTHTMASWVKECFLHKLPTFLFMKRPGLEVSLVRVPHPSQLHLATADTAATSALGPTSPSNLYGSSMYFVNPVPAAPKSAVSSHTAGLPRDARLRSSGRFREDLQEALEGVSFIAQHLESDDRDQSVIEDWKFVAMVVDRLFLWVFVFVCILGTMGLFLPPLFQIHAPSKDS

| Compound | Hill Slope (rα3β4 nAChR) | change of IC50 compared with WT TxID (rα3β4 nAChR) [fold] | inhibitory activity at rα3β4 (in words) (rα3β4 nAChR) | potency at α3β4 compared with native TxID (in words) (rα3β4 nAChR) | inhibitory activity at rα6/α3β4 (in words) (rα6/α3β4 nAChR) | fluorescence intensity, flow cytometry (in words) (RAW264.7 cells [1]) | red fluorescence labelling of cells (in words) (RAW264.7 cells [2]) | IC50 (α3β4 nAChR) [nM] | anti-nicotine addiction effect (in words) [3] |
| --- | --- | --- | --- | --- | --- | --- | --- | --- | --- |
| CC[C@H](C)[C@@H]1NC(=O)[C@@H]2CCCN2C(=O)[C@H](CO)NC(=O)[C@H](CCSC)NC(=O)[C@H](C)NC(=O)[C@H](CO)NC(=O)[C@@H]2CSSC[C@H](NC(=O)CNC(=O)c3ccc(-c4c5ccc(=[N+](C)C)cc-5oc5cc(N(C)C)ccc45)c(C(=O)[O-])c3)C(=O)N[C@@H](CSSC[C@@H](C(N)=O)NC1=O)C(=O)N[C@@H](CO)C(=O)N[C@@H](Cc1c[nH]cn1)C(=O)N1CCC[C@H]1C(=O)N[C@@H](C(C)C)C(=O)N2 [TxID-F] | 0.8 (0.7–0.9) | 3 | most inhibitory activity | maintained the same order of potency | followed with the rα6/α3β4 subtype | strong fluorescence intensity | red fluorescence signal was observed on the RAW264.7 cells |  |  |
| CC[C@H](C)[C@@H]1NC(=O)[C@@H]2CCCN2C(=O)[C@H](CO)NC(=O)[C@H](CCSC)NC(=O)[C@H](C)NC(=O)[C@H](CO)NC(=O)[C@@H]2CSSC[C@H](NC(=O)CN)C(=O)N[C@@H](CSSC[C@@H](C(N)=O)NC1=O)C(=O)N[C@@H](CO)C(=O)N[C@@H](Cc1c[nH]cn1)C(=O)N1CCC[C@H]1C(=O)N[C@@H](C(C)C)C(=O)N2 [TxID] | 0.6 (0.5–0.7) |  |  |  |  |  |  | […] | anti-nicotine addiction effect |
